Measured values from patent US10011587B2, “Multivalent ligands targeting VEGFR” (THE METHODIST HOSPITAL SYSTEM, priority 2014, dated 2018).
Blank lines part the entries; values can stand above or below the molecule they belong to.

How the values were obtained:
[1] = tested on: MDA-MB-231, HCT-116, U-87-MG; assay: In vitro cell viability (MTT), cancer cell lines; assay type: cell-based, human
Procedure: (§1) MDA-MB-231 and U-87-MG cell lines were cultured in DMEM medium (Gibco, Grand Island, N.Y.) containing 10% fetal bovine serum (FBS) and 1% penicillin streptomycin at 37° C. in a humidified atmosphere of 5% CO2 in air. HCT 116 (human, colorectal carcinoma cell line) was grown in McCoy's 5a medium modified with 10% FBS. HUVECs (Human Umbilical Vein Endothelial cells) were grown in EGM medium (Lonza), supplemented with 20% FBS, 100 U/mL penicillin, 100 μg/mL streptomycin at 37° C. under a humidified atmosphere of 5% CO2 and 95% O2 with same condition as above. For the cell viability assay, the cells were then seeded into 96-well flat-bottomed tissue-culture plates at 1×10^4 cells/well and incubated for 24 or 72 h in humidified atmosphere of 5% (v/v) CO2 at 37° C. in the presence of each compound. For HUVECs, the flat-bottomed 96-well plate (Corning, N.Y., USA) was coated 1 h at 37° C. with gelatin (0.3% in PBS, pH 7.4) and then washed with PBS. The cells were then treated with ZD6474 monomer and its dimer compounds in the range from 5 nM to 100 μM concentration mixed with 1% FBS added culture medium (HUVECs was 2% FBS added). Following 24 and 72 h of incubation under 5% CO2 at 37° C., the cells were washed with PBS and cell viability was assessed by MTT colorimetric assay. The absorbance of individual wells was measured by using an automated microplate reader (570 nm; VERSAmax, Molecular Devices Corp., Sunnyvale, Calif.). The data are expressed as the percentage of viable cells compared to the survival of a control group and were presented as mean±s.e. (n=6).

[2] = tested on: HUVECs; assay: In vitro cell viability (MTT), HUVECs; assay type: cell-based, human
Procedure: as §1, with “The cells were then treated with ZD6474 monomer and its dimer compounds in the range from 5 nM to 100 μM concentration mixed with 1% FBS added culture medium (HUVECs was 2% FBS added).” left out, “(n=6).” left out

[3] = tested on: HUVECs; assay: In vitro tubular formation on Matrigel; assay type: cell-based, human; conditions: 10 μM, 6 h
Procedure: Growth factor reduced Matrigel (100 μL, BD Bioscience, San Jose, Calif., USA) was added to each well of a 96-well plate and allowed to polymerize for 30 min at 37° C. HUVECs were suspended in the medium at the density of 4×10^5 cells per milliliter, and 0.1 mL of the cell suspension was added to each well coated with Matrigel in the presence of ZD6474 monomer or ZD6474 dimer Cells were incubated at 37° C. for 6 h, and then photographed. The branch points were counted and averaged.

[4] = tested on: VEGF165-induced angiogenesis; assay: In vivo Matrigel plug assay; design: species or system nu/nu nude mice; conditions: VEGF165 500 ng/mL, compound 100 μM, 10 days
Procedure: The matrigel plug assays were performed injecting 637 μL of growth factor reduced liquid Matrigel-PBS mixture was into subcutaneously into the flanks of nu/nu nude mice at 4° C. Once inside the animals, the liquid Matrigel-PBS mixture solidifies. For comparison, Matrigel alone as well as Matrigel containing VEGF165 (Peprotech, Rocky Hill, N.J.) at a final concentration of 500 ng/mL to stimulate angiogenesis, and Matrigel with VEGF165 along with either ZD6474 monomer, ZD6474 dimer at a final concentration of 100 μM were used. All of the injection groups consisted of three mice. After 10 days, the mice were sacrificed and the Matrigel plugs were removed, fixed in 4% formalin and photographed.

[5] = In vitro cell viability (MTT), cancer cell lines; assay type: cell-based, human; conditions: human, MDA-MB-231, HCT-116 and U-87-MG cancer cells; 100 μM, cancer cell lines, 72 h; read-out: cells remaining viable
Procedure: as §1

[6] = target: T1, VEGFR2 (Homo sapiens, UniProt P35968); assay: Cell VEGFR2 receptor-binding assay, displacement/competition; conditions: read-out: 50% inhibitory concentration (IC50)
T1 construct: evaluated by saturation and displacement assays using U87 cells; endogenous in cells; host or cells: U87 (U87MG) human glioblastoma cells
T1 sequence (P35968 20-1356): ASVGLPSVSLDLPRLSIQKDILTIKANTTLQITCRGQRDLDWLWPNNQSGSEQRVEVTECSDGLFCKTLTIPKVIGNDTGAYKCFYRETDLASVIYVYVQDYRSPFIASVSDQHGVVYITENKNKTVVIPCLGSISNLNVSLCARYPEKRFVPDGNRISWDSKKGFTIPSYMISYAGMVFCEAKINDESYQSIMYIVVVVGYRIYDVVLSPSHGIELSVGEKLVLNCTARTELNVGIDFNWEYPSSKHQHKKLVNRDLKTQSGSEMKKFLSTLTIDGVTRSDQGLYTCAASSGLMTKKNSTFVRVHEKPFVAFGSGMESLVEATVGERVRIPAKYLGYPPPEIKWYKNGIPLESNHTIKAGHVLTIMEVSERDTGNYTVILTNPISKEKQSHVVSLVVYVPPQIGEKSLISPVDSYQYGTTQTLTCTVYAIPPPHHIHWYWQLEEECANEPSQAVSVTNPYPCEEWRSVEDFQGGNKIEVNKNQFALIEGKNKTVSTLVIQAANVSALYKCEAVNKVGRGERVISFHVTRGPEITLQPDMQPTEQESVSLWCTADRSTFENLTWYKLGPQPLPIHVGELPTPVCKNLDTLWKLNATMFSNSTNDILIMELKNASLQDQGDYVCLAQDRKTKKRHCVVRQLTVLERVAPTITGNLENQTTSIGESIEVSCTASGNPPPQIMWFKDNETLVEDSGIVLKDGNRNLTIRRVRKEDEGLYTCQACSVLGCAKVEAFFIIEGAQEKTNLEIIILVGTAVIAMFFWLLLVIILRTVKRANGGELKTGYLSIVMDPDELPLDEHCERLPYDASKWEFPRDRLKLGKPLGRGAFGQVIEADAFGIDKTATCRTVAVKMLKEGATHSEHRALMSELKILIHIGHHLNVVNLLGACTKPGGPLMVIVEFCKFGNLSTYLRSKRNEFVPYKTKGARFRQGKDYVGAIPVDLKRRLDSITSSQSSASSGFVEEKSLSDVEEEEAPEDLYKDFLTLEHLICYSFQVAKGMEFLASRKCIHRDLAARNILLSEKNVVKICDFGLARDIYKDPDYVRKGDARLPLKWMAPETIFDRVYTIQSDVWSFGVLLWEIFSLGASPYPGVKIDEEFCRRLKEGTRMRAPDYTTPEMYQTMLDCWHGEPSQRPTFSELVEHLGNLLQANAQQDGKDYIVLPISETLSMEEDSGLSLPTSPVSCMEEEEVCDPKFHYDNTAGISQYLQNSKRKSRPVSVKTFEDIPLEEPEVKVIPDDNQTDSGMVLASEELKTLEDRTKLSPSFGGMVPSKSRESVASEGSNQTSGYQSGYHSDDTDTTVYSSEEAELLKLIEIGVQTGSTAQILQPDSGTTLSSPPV
Procedure: Cells were seeded in 12 well plates at concentration of 5×10^5 cells per well the day before the experiment. […] The cells were then washed with cold PBS and trypsinized. The cell-associated radioactivity was measured using γ-counter (Perkin-Elmer, CT) and the Kd values were calculated by fitting the data by nonlinear regression using GraphPad Prism (GraphPad Software, CA). […] The experiment procedures are similar with those used for the saturation study described above. All experiments were carried out with triplicate samples.

[7] = target: T2, VEGFR (Homo sapiens, UniProt P35968); assay: VEGFR cell receptor-binding assay, competition against 64Cu-DOTA-ZD-G2; conditions: U-87 MG cells, 1 uCi 64Cu-DOTA-ZD-G2 per well, 4° C., 1 hour
T2 construct: endogenous in cells; host or cells: U-87 MG human glioblastoma cells
T2 sequence (P35968 20-1356): as above
Procedure: Cells were seeded in 12-well plates at a density about 5×10^5 cells per well the day before the experiment. […] The HPLC purified radio-tracer was re-dissolved in FBS-free DMEM medium and diluted to 1 uCi/100 uL. […] After incubation at 4° C. for 1 hour, the supernatant with free radio tracer was removed carefully and the cells were then washed with cold PBS for three times and trypsinized. The cells were collected and cell pellet associated radioactivity was measured and the binding affinity values (IC50) were calculated by nonlinear regression using GraphPad Prism (GraphPad Software, CA). All experiments were carried out in triplicate.

[8] = tested on: MDA-MB-231 cells and HUVEC; assay: In vitro cellular uptake of FAM-conjugated compounds; assay type: cell-based, human; conditions: 3 h, 100 nM dose
Procedure: Each of the FAM-conjugated compounds was incubated with MDA-MB-231 cells seeded 24 h earlier in a 96 well plate with 1% serum medium. Serial dilutions of the compounds were incubated for 3 h. The treated medium was then exchanged for fresh serum free medium. The remaining compound was then quantified from images taken using a Xenogen IVIS-200 (PerkinElmer, Inc. San Jose, Calif.) fluorescent imaging system. The same was done with HUVEC.

[9] = tested on: VEGF receptor on HUVECs; assay: Blocking assay of FAM-conjugated compounds; assay type: cell-based, human; conditions: HUVEC
Procedure: Specific binding of ZD6474-monomer and dimer were tested with blocking studies. Unlabeled ZD6474-monomer and ZD6474-dimer were mixed with the corresponding FAM-conjugated compounds simultaneously for 3 h. Plates were then imaged using the Xenogen IVIS-200 system. Similarly treated cells were fixed in 4% paraformaldehyde and imaged under fluorescent microscopy after staining the nuclei with DAPI.

[10] = tested on: U87-MG human glioblastoma xenograft; assay: Ex vivo tumor accumulation and biodistribution fluorescence imaging; assay type: in vivo, nu/nu female mice
Procedure: The subcutaneous dorsa of five nu/nu female mice (6 weeks old; 20 g) were inoculated bilaterally with 1×10^7 U87-MG human glioblastoma cells overexpressing the VEGF receptor. Once the tumor diameter was approximately 7-8 mm at 21 days post implant, the mice were divided into three groups for the following injections: (a) free FAM (n=1), (b) FAM-labeled ZD6474-monomer (50 μM; n=2), and (c) FAM-labeled ZD6474-dimer (50 μM, n=2). The animals were manually restrained during intravenous tail injection. All tail vein injections were carried out with a 31 gauge needle placed in a lateral tail vein to inject 100 μL of solution. Twenty-four hours post injection, fluorescence images were acquired using a one second exposure time. The tumors and major organs were dissected and imaged again. […] In vivo fluorescence imaging was performed using the Xenogen IVIS 200 imaging system. To better observe the signal without losses and background due to intervening tissue, fluorescence images were collected ex vivo. Raw counts for each organ were measured using the Xenogen software by drawing oval regions of interest (ROI) around the organ of interest. […] An estimate of the percentage of injected dose accumulated in the tumors was established by comparing measured counts/volume of tissue with the measured counts/volume of a known concentration of the same compound in water at the same exposure. […]

Compound: COc1cc2c(Nc3ccc(Br)cc3F)ncnc2cc1OCC1CCN(C(=O)CCCCCC(N)C(=O)N2CCC(COc3cc4ncnc(Nc5ccc(Br)cc5F)c4cc3OC)CC2)CC1 (stereo not shown) [ZD6474-dimer]
toxicity to the cancer cells ([1]; 5 nM to 50 μM): low toxicity
cells remaining viable ([1]; 100 μM, cancer cell lines, 72 h): around 50%
concentration at which cell viability begins to be affected [2]: 500 nM
number of tube branches (control group 100%) [3]: 75±5.2%
appearance of Matrigel plugs (blood vessel formation) [4]: almost the same as the PBS treated negative control group

Compound: COc1cc2c(Nc3ccc(Br)cc3F)ncnc2cc1OCC1CCN(C)CC1 [ZD-G1, vandetanib, reference compound]
viability at 72 h, 100 µM [5]: ~50%
concentration at which cell viability begins to be affected [2]: 500 nM
number of tube branches (control group 100%) [3]: 52.0±4.8%

Compound: COc1cc2c(Nc3ccc(Br)cc3F)ncnc2cc1OCC1CCN(C(=O)OCCN(CCOC(=O)NCCN)CCOC(=O)N2CCC(COc3cc4ncnc(Nc5ccc(Br)cc5F)c4cc3OC)CC2)CC1 [ZD-G2]
IC50 [6]: 0.023 ± 0.002 nM
IC50 [7]: 0.026 nM

Continued, in another order:

blocking of fluorescence (cellular uptake images) ([9]; 100 μM ZD6474-dimer): Complete blocking of fluorescence
loss of FAM signal when mixed with unlabeled dimer ([9]; 100× unlabeled ZD6474-dimer, 3 h): ~90%
total injected dose ending up in the tumors ([10]; 24 h after i.v. injection, estimate against known dye concentrations): at least 6%
fluorescent intensity of tumors relative to tumors in other groups and organs ([10]; ex vivo, 24 h following i.v. injection): about 20 ×
Compound: COc1cc2c(Nc3ccc(Br)cc3F)ncnc2cc1OCC1CCN(C(=O)CCCCCC(NC(=O)c2ccc(C(=O)O)c(-c3c4ccc(=O)cc-4oc4cc(O)ccc34)c2)C(=O)N2CCC(COc3cc4ncnc(Nc5ccc(Br)cc5F)c4cc3OC)CC2)CC1 (stereo not shown) [dimer-FAM]
uptake in HUVECs compared with MDA-MB-231 cells [8]: overall higher uptake of dimer-FAM by HUVECs

mean blocked signal relative to blocked dimer FAM ([9]; 100× unlabeled compound, 10 μM dose): over 10 ×
Compound: COc1cc2c(Nc3ccc(Br)cc3F)ncnc2cc1OCC1CCN(C(=O)c2ccc(C(=O)O)c(-c3c4ccc(=O)cc-4oc4cc(O)ccc34)c2)CC1 [monomer-FAM]
